Measurements as given in patent publication US4362746A (priority 1981, dated 1982).
Structures can show the parent of a compound that is named as a salt. Where two headings read alike, the source gives them in different places.

What was measured:
[1] = test system: Influenza A/Swine/1976/31; experiment: microbe, parasite or virus in culture; format: cell-based; conditions: in Sus scrofa
[2] = test system: influenza virus A2 /Aichi/2/68; format: in vivo, mice (Charles River, random bred white, female); conditions: for Mean Survival Time / Survival % / Survival N (surviving animals / total infected) / Mean Survival Time Increase: 16 days; for Mean Survival Time Increase: vs virus only; for antiviral effect against influenza virus infection: administered intraperitoneally
Influenza A2 /MTL/68 = experiment: In vitro anti-myxovirus assay, inhibition of hemadsorption, Influenza A2/MTL/68 in G-2 cells; format: cell-based, Influenza A2 /Montreal/68; conditions: for inhibition at 50 µg/mL: 50 ug/ml; for inhibition at 5 µg/mL: 5 ug/ml; for inhibition at 10 µg/mL: 10 ug/ml; for inhibition at 25 µg/mL: 25 ug/ml; for inhibition at 33 µg/mL: 33 ug/ml
in vitro = conditions: human, g-2 cells; for MNTC: Cytotoxicity CTD0, maximal non-toxic concentration; for CC50: Cytotoxicity CTD50
Influenza A2 /Aichi/2/68 = experiment: In vitro anti-myxovirus assay, inhibition of hemadsorption, Influenza A2/Aichi/2/68 in G-2 cells; format: cell-based; conditions: for inhibition at 50 µg/mL: 50 ug/ml; for inhibition at 60 µg/mL: 60 ug/ml; for inhibition at 70 µg/mL: 70 ug/ml; for inhibition at 80 µg/mL: 80 ug/ml; for inhibition at 90 µg/mL: 90 ug/ml; for inhibition at 100 µg/mL: 100 ug/ml
mice [3] = experiment: Acute toxicity in mice; conditions: after 24 hours
Acute toxicity in mice = conditions: mouse, in vivo
mice [4] = experiment: Subacute toxicity in mice; conditions: once a day, seventeenth day of treatment
[5] = Subacute toxicity in mice; conditions: mouse, in vivo
G-2 cells = conditions: maximal non-toxic concentration; G-2 cells; hydrochloride
[6] = Exp. 1, virus dose 4.1 LD50, 75 mg/kg/day IP
[7] = Exp. 2, virus dose 2.0 LD50, 75 mg/kg/day IP
[8] = Exp. 3, virus dose 2.6 LD50, 75 mg/kg/day IP
[9] = Exp. 4, virus dose 3.0 LD50, 75 mg/kg/day IP
[10] = Exp. 1, virus dose 4.1 LD50, 25 mg/kg/day IP

`NC12CC3CC(CC(C3)C1)C2` [AMANTADINE HYDROCHLORIDE, reference compound] showed an inhibition at 30 µg/mL ([1]; 178 TCID50, 30 ug/ml) of 0%, an inhibition at 40 µg/mL ([1]; 178 TCID50, 40 ug/ml) of 17% and an inhibition at 50 µg/mL ([1]; 178 TCID50, 50 ug/ml) of 80%. For the same molecule, the inhibition at 60 µg/mL ([1]; 178 TCID50, 60 ug/ml) was 90%, the inhibition at 70 µg/mL ([1]; 178 TCID50, 70 ug/ml) was 93% and the inhibition at 80 µg/mL ([1]; 178 TCID50, 80 ug/ml) was 100%. The inhibition at 90 µg/mL ([1]; 178 TCID50, 90 ug/ml) was 100%, the inhibition at 100 µg/mL ([1]; 178 TCID50, 100 ug/ml) was 100% and the inhibition at 30 µg/mL ([1]; 316 TCID50, 30 ug/ml) was 0%. It also gave an inhibition at 40 µg/mL ([1]; 316 TCID50, 40 ug/ml) of 10%, an inhibition at 50 µg/mL ([1]; 316 TCID50, 50 ug/ml) of 67% and an inhibition at 70 µg/mL ([1]; 316 TCID50, 70 ug/ml) of 97%. It also gave an inhibition at 80 µg/mL ([1]; 316 TCID50, 80 ug/ml) of 100%, an inhibition at 90 µg/mL ([1]; 316 TCID50, 90 ug/ml) of 100% and an inhibition at 100 µg/mL ([1]; 316 TCID50, 100 ug/ml) of 100%. The “Mean Survival Time” value [2, 6] was 14.1 days, the Survival % [2, 6] was 55% and the “Survival N (surviving animals / total infected)” value [2, 6] was 11/20. For the same molecule, the “Mean Survival Time Increase” value [2, 6] was “+1.9 Days”, the “Mean Survival Time” value [2, 7] was 15.3 days and the Survival % [2, 7] was 80%. For the same molecule, the “Survival N (surviving animals / total infected)” value [2, 7] was 16/20, the “Mean Survival Time Increase” value [2, 7] was “+2.9 Days” and the “Mean Survival Time” value [2, 8] was 15.1 days. The Survival % [2, 8] was 80%, the “Survival N (surviving animals / total infected)” value [2, 8] was 16/20 and the “Mean Survival Time Increase” value [2, 8] was “+4.0 Days”. For the same molecule, the “Mean Survival Time” value [2, 9] was 15.0 days, the Survival % [2, 9] was 79% and the “Survival N (surviving animals / total infected)” value [2, 9] was 15/19. The “Mean Survival Time Increase” value [2, 9] was “+3.7 Days”, the “antiviral effect against influenza virus infection” value [2] was “significant antiviral effect” and the inhibition at 50 µg/mL (Influenza A2 /MTL/68; 316 TCID50) was 0%. The inhibition at 60 µg/mL (Influenza A2 /MTL/68; 316 TCID50, 60 ug/ml) was 0%, the inhibition at 70 µg/mL (Influenza A2 /MTL/68; 316 TCID50, 70 ug/ml) was 16% and the inhibition at 80 µg/mL (Influenza A2 /MTL/68; 316 TCID50, 80 ug/ml) was 42%. The inhibition at 90 µg/mL (Influenza A2 /MTL/68; 316 TCID50, 90 ug/ml) was 46%, the inhibition at 100 µg/mL (Influenza A2 /MTL/68; 316 TCID50, 100 ug/ml) was 54% and the MNTC (in vitro) was 100 µg/mL. The CC50 (in vitro) was > 100 µg/mL, the inhibition at 50 µg/mL (Influenza A2 /Aichi/2/68; 52 TCID50) was 0% and the inhibition at 60 µg/mL (Influenza A2 /Aichi/2/68; 52 TCID50) was 53%. For the same molecule, the inhibition at 70 µg/mL (Influenza A2 /Aichi/2/68; 52 TCID50) was 83%, the inhibition at 80 µg/mL (Influenza A2 /Aichi/2/68; 52 TCID50) was 70% and the inhibition at 90 µg/mL (Influenza A2 /Aichi/2/68; 52 TCID50) was 97%. It also gave an inhibition at 100 µg/mL (Influenza A2 /Aichi/2/68; 52 TCID50) of 87%, an inhibition at 50 µg/mL (Influenza A2 /Aichi/2/68; 100 TCID50) of 0% and an inhibition at 60 µg/mL (Influenza A2 /Aichi/2/68; 100 TCID50) of 0%. For the same molecule, the inhibition at 70 µg/mL (Influenza A2 /Aichi/2/68; 100 TCID50) was 33%, the inhibition at 80 µg/mL (Influenza A2 /Aichi/2/68; 100 TCID50) was 27% and the inhibition at 90 µg/mL (Influenza A2 /Aichi/2/68; 100 TCID50) was 67%. The inhibition at 100 µg/mL (Influenza A2 /Aichi/2/68; 100 TCID50) was 43%.
Work on `CN(C)C[C@@H]1C[C@H]2C[C@@H]1c1ccccc12` (relative stereo) [Compound A, endo-2-dimethylaminomethyl-1,2,3,4-tetrahydro-1,4-methanonaphthalene hydrochloride] yielded an inhibition at 5 µg/mL ([1]; 56 TCID50, 5 ug/ml) of 0%, an inhibition at 10 µg/mL ([1]; 56 TCID50, 10 ug/ml) of 37% and an inhibition at 25 µg/mL ([1]; 56 TCID50, 25 ug/ml) of 85%. The inhibition at 33 µg/mL ([1]; 56 TCID50, 33 ug/ml) was 82%, the inhibition at 50 µg/mL ([1]; 56 TCID50, 50 ug/ml) was 97% and the inhibition at 75 µg/mL ([1]; 56 TCID50, 75 ug/ml) was 100%. It also gave an inhibition at 5 µg/mL ([1]; 562 TCID50, 5 ug/ml) of 0%, an inhibition at 10 µg/mL ([1]; 562 TCID50, 10 ug/ml) of 0% and an inhibition at 25 µg/mL ([1]; 562 TCID50, 25 ug/ml) of 0%. The inhibition at 33 µg/mL ([1]; 562 TCID50, 33 ug/ml) was 37%, the inhibition at 50 µg/mL ([1]; 562 TCID50, 50 ug/ml) was 72% and the inhibition at 75 µg/mL ([1]; 562 TCID50, 75 ug/ml) was 73%. For the same molecule, the “Mean Survival Time” value [2, 10] was 12.7 days, the Survival % [2, 10] was 30% and the “Survival N (surviving animals / total infected)” value [2, 10] was 6/20. For the same molecule, the “Mean Survival Time Increase” value [2, 10] was “+0.5 Days”, the “antiviral effect against influenza virus infection” value [2] was “significant antiviral effect” and the inhibition at 5 µg/mL (Influenza A2 /MTL/68; 32 TCID50) was 0%. For the same molecule, the inhibition at 10 µg/mL (Influenza A2 /MTL/68; 32 TCID50) was 23%, the inhibition at 25 µg/mL (Influenza A2 /MTL/68; 32 TCID50) was 76% and the inhibition at 33 µg/mL (Influenza A2 /MTL/68; 32 TCID50) was 78%. For the same molecule, the inhibition at 50 µg/mL (Influenza A2 /MTL/68; 32 TCID50) was 97%, the inhibition at 5 µg/mL (Influenza A2 /MTL/68; 316 TCID50) was 0% and the inhibition at 10 µg/mL (Influenza A2 /MTL/68; 316 TCID50) was 0%. The inhibition at 25 µg/mL (Influenza A2 /MTL/68; 316 TCID50) was 27%, the inhibition at 33 µg/mL (Influenza A2 /MTL/68; 316 TCID50) was 52% and the inhibition at 50 µg/mL (Influenza A2 /MTL/68; 316 TCID50) was 53%. The MNTC (in vitro) was 75 µg/mL, the CC50 (in vitro) was 100 µg/mL and the “Acute LD0 (non-lethal dose)” value (mice [3]; IP) was 75 mg/kg/day. The “Acute LD0 (non-lethal dose)” value (mice [3]; PO) was > 750 mg/kg/day, the LD50 at 24 h (Acute toxicity in mice; ip) was 160 mg/kg and the NOAEL at 24 h (Acute toxicity in mice; ip) was 25 mg/kg/day. The LD50 at 24 h (Acute toxicity in mice; po) was > 750 mg/kg, the NOAEL at 24 h (Acute toxicity in mice; po) was 200 mg/kg/day and the “Subacute LD0 (non-lethal dose)” value (mice [4]; IP) was 75 mg/kg/day. The “Subacute LD0 (non-lethal dose)” value (mice [4]; PO) was > 750 mg/kg/day, the LD50 at 408 h ([5]; ip) was 125 mg/kg and the NOAEL at 408 h ([5]; ip) was 25 mg/kg/day. The LD50 at 408 h ([5]; po) was > 750 mg/kg, the NOAEL at 408 h ([5]; po) was 300 mg/kg/day and the “Cytotoxicity CTD0” value (G-2 cells) was 50 µg/mL.
